This note sets out measurements from US20090042878A1, “THIENOPYRIMIDYLAMINES AS MODULATORS OF THE EP2 RECEPTOR” (priority 2007, published 2009).

Usually IC50 stands for the midpoint of a concentration-inhibition curve.

SMILES strings stand for the structures.

For one test, the system named is cumulus-oocyte complexes. As to the kind of experiment: cumulus expansion assay in vitro. Type of test: cell-based, mice. Conditions: competing with natural EP2 receptor agonist PGE2. The method, then: Folliculogenesis is induced in immature female mice at an age of 14-18 days by a single dose (intraperitoneal) of 10 I.U. of PMSG (Pregnant Mare Serum Gonadotropin; Sigma G-4877, Lot 68H0909). 47-50 hours after the injection, the ovaries are removed and the cumulus-oocyte complexes are removed. The cumulus complex is not yet expanded at this stage.
The cumulus-oocyte complexes are then incubated with prostaglandin E2 (PGE2) (1 μM), vehicle control (ethanol) or test substances for 20-24 hours. Medium: alpha-MEM medium with 0.1 mM IBMX, pyruvates (0.23 mM) glutamines (2 mM), pen/strep 100 IU/ml pen. and 100 μg/ml strep. and HSA (8 mg/ml). Cumulus expansion is then established through the division into four stages (according to Vanderhyden et al. Dev Biol. 1990 August; 140(2):307-317).

In test [1] the target is T1, human prostaglandin E2 (subtype EP2) receptor (Homo sapiens, UniProt P43116).
T1 construct: host or cells: cells in a cell culture plate
As to the kind of experiment: cAMP antagonism test (HTRF cAMP detection, PGE2 stimulation). The class given is cell-based. Conditions: in presence of PGE2. As to the method: (§1) The binding of PGE2 to the EP2 subtype of the human PGE2 receptor induces activation of membrane-associated adenylate cyclases and leads to the formation of cAMP. In the presence of the phosphodiesterase inhibitor IBMX, cAMP which has accumulated due to this stimulation and been released by cell lysis is employed in a competitive detection method. In this assay, the cAMP in the lysate competes with cAMP-XL665 for binding of an Eu cryptate-labelled anti-cAMP antibody.
(§2) The two signals are measured in a suitable measuring instrument with a time lag, i.e. after the background fluorescence has declined.
(§3) The substance solutions (0.75 μl) introduced into an assay plate and 30% DMSO are dissolved in 16 μl of a KRSB+IBMX stimulation solution (1× Krebs-Ringer Bicarbonate Buffer; Sigma-Aldrich #K-4002; including 750 μM 3-isobutyl-1-methylxanthine Sigma-Aldrich #I-7018), and then 15 μl thereof are transferred into a media-free cell culture plate which has been washed with KRSB shortly beforehand.
After preincubation at room temperature (RT) for 30 minutes, 5 μl of a 4×PGE2 solution (11 nM) are added, and incubation is carried out in the presence of the agonist at RT for a further 60 min (volume: ˜20 μl) before the reaction is then stopped by adding 5 μl of lysis buffer and incubated at RT for a further 20 min (volume: ˜25 μl). The cell lysate is then transferred into a measuring plate and measured in accordance with the manufacturer's information (cyclic AMP kit Cisbio International #62AMPPEC).

In test [2] the target is T1, human prostaglandin E2 (subtype EP2) receptor. As to the kind of experiment: cellular agonism test (cAMP). Type of test: cell-based. The method, then: as §1, §2, §3
After incubation at room temperature (RT; volume: ˜15 μl) for 60 minutes, the reaction is then stopped by adding 5 μl of lysis buffer and incubated at RT for a further 20 min (volume: ˜20 μl). The cell lysate is then transferred into a measuring plate and measured in accordance with the manufacturer's instructions (cyclic AMP kit Cisbio International #62AMPPEC).

T1 sequence (P43116 whole entry): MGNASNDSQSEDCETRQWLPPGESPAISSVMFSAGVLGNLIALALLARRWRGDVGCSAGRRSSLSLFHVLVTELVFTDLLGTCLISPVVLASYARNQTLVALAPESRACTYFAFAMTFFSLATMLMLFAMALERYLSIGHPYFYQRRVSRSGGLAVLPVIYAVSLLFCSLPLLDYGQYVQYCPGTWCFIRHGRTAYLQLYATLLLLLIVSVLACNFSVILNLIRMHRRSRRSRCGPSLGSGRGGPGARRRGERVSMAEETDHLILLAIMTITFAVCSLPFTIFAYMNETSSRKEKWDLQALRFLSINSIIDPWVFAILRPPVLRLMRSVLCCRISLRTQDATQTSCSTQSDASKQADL

Regarding `CC(C)Oc1ccc2c(=O)c3cc(C(=O)O)ccc3oc2c1` [AH 6809, reference compound], in the test on cumulus-oocyte complexes, the “suppression of cumulus expansion” value is “approx. 30%”.
Take `c1cnc2ccc(-c3cc4ncnc(NCc5ccc6c(c5)OCO6)c4s3)cc2c1` [Example 57, Benzo[1,3]dioxol-5-ylmethyl-(6-quinolin-6-yl-thieno[3,2-d]pyrimidin-4-yl)amine]: the IC50 in test [1] worked out at 0.61 µM.
As for `COc1ccc(CNc2ncnc3cc(-c4cccc(NC(C)=O)c4)sc23)cc1` [Example 90, N-{3-[4-(4-Methoxybenzylamino)thieno[3,2-d]pyrimidin-6-yl]phenyl}acetamide], the IC50 in test [1] came to 0.31 µM.
Regarding `CC(=O)Nc1cccc(-c2cc3ncnc(NCc4ccc5c(c4)OCO5)c3s2)c1` [Example 69, N-(3-{4-[(Benzo[1,3]dioxol-5-ylmethyl)amino]thieno[3,2-d]pyrimidin-6-yl}phenyl)acetamide], in test [1], the IC50 was 0.46 µM. Besides, the “effect in the cellular agonism test” value in test [2] is “no inhibition”.
In the case of `Oc1ccc(CCNc2ncnc3cc(-c4ccccc4)sc23)cc1` [Example 9, 4-[2-(6-Phenylthieno[3,2-d]pyrimidin-4-ylamino)ethyl]phenol], in the test with cumulus-oocyte complexes (10 μM), the “suppression of cumulus expansion” value came out at 45%.
